Counter-ions that a name gives are not always drawn.
Legend:
PDGFR beta = molecular target: T1, PDGFR beta (Homo sapiens, UniProt P09619); experiment: Phospho PDGFR LICOR Cell Assay (Example B); type: cell-based; details: averaged IC50; PDGFR beta phosphorylation in HS27 human fibroblast cell line, PDGF-BB stimulation 10 minutes, normalized to total ERK
T1 construct: endogenous in cells; host or cells: HS27 human fibroblast cell line
Protocol: Compounds were screened for inhibition of PDGFR beta phosphorylation in the HS27 human fibroblast cell line. Cells were seeded into a 96 well tissue culture plate, then incubated overnight in a 37° C./5% CO2 incubator. The following day, cells were treated for one hour with test compound dilutions. After stimulation with PDGF-BB ligand for 10 minutes, cells were washed with PBS and fixed in 3.7% formaldehyde in PBS for 10 minutes. This was followed by washing in PBS/0.2% Triton X-100 and permeabilizing in 100% MeOH for 10 minutes. Cells were incubated in blocking buffer for 1 hour. Antibodies to phosphorylated PDGFRβ and total ERK were added to the cells and incubated for 3 hours. After washing with PBS/0.2% Triton X-100, the cells were incubated with fluorescently-labeled secondary antibodies for an additional hour. Cells were then washed with PBS and analyzed for fluorescence at both wavelengths using the Odyssey Infrared Imaging System (LI-COR Biosciences). Phosphorylated PDGFR signal was normalized to total ERK signal. A standard 4-parameter logistic model was fit to the inhibitor dose response curves, with the IC50 being defined as the concentration of inhibitor giving 50 percent of control (POC).

cFMS = molecular target: T2, cFMS (Homo sapiens, UniProt P07333); experiment: cFMS Cell-Based Assay (Example C); details: averaged IC50; phospho-cFMS in THP-1 cells stimulated with 250 ng/mL recombinant human MCSF; read-out: cFMS Cell ELISA IC50
T2 construct: THP-1 cells (human acute monocytic leukemia cell line) were serum-starved for 4 hours; endogenous in cells; host or cells: THP-1 cells (human acute monocytic leukemia cell line)
Protocol: The ability of compounds of Formula I to inhibit cFMS activation in cells was determined by the following assay. THP-1 cells (human acute monocytic leukemia cell line) were serum-starved for 4 hours prior to treatment with compounds of Formula I for 1 hour. The concentration of compounds of Formula I was varied over a 9-point, 3-fold dilution series with 5,000 nM typically being the highest dose. Cell culture and treatment were carried out in a humidified 37° C., 5% CO2 incubator. Treated cells were stimulated with 250 ng/mL recombinant human MCSF for 1 minute to induce activation of cFMS. Cells were lysed in a manner which preserves phosphoproteins, and the lysate was analyzed by ELISA (R&D Systems, Human Phospho-M-CSF R DuoSet IC DYC3268), in which total cFMS protein in the lysate is captured and phosphotyrosine residues of cFMS are detected. A standard curve, made using purified phospho-M-CSF R protein, was used to quantify phospho-c-FMS in compound-treated wells. A standard 4-parameter logistic model was fit to the inhibitor dose response curves, with the IC50 being defined as the concentration of inhibitor giving 50 percent of control (POC).

c-KIT = molecular target: T3, c-KIT (Homo sapiens, UniProt P10721); experiment: c-KIT Cell-Based Assay (Example D); details: averaged IC50; phospho-c-KIT in M-07e cells stimulated with 150 ng/ml recombinant human SCF; read-out: cKIT Cell ELISA IC50
T3 construct: M-07e cells (human acute megakaryoblastic leukemia cell line) were serum-starved for 4 hours; endogenous in cells; host or cells: M-07e cells (human acute megakaryoblastic leukemia cell line)
Protocol: The ability of compounds of Formula I to inhibit c-KIT activation in cells was determined by the following assay. M-07e cells (human acute megakaryoblastic leukemia cell line) were serum-starved for 4 hours prior to treatment with compounds of Formula I for 1 hour. The concentration of compounds of Formula I was varied over a 9-point, 3-fold dilution series with 5,000 nM typically being the highest dose. Cell culture and treatment were carried out in a humidified 37° C., 5% CO2 incubator. Treated cells were stimulated with 150 ng/ml recombinant human SCF for 4 minutes to induce activation of c-KIT. Cells were lysed in a manner which preserves phosphoproteins, and the lysate was analyzed by ELISA (R&D Systems, Human Phospho-SCF R DuoSet IC DYC3527), in which total c-KIT protein in the lysate is captured and phosphotyrosine residues of c-Kit are detected. A standard curve, made using purified phospho-SCF R protein, was used to quantify phospho-c-KIT in compound-treated wells. A standard 4-parameter logistic model was fit to the inhibitor dose response curves, with the IC50 being defined as the concentration of inhibitor giving 50 percent of control (POC).

T3 sequence (P10721 26-976): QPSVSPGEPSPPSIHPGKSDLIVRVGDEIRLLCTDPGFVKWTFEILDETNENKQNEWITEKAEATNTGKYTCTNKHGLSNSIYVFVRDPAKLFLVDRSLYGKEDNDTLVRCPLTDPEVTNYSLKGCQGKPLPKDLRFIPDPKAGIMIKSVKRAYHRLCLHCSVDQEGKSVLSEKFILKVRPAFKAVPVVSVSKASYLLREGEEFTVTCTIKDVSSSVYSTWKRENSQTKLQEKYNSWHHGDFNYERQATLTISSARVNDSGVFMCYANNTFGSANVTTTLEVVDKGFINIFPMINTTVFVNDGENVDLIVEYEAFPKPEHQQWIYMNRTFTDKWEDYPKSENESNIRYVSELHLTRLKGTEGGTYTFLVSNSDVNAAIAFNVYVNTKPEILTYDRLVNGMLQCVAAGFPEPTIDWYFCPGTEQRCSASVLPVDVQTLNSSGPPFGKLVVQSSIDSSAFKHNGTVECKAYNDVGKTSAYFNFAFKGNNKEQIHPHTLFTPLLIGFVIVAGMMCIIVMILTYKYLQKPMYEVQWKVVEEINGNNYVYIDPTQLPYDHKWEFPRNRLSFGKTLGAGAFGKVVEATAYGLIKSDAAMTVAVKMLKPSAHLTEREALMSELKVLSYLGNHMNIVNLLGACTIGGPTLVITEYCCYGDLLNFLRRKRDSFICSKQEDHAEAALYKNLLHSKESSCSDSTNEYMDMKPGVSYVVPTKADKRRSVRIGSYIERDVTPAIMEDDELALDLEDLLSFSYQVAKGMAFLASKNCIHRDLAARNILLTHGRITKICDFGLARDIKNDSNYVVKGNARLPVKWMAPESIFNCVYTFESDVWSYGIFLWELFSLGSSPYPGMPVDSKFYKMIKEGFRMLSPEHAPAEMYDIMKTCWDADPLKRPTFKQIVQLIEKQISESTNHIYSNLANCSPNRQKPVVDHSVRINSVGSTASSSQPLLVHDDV
T1 sequence (P09619 33-1106): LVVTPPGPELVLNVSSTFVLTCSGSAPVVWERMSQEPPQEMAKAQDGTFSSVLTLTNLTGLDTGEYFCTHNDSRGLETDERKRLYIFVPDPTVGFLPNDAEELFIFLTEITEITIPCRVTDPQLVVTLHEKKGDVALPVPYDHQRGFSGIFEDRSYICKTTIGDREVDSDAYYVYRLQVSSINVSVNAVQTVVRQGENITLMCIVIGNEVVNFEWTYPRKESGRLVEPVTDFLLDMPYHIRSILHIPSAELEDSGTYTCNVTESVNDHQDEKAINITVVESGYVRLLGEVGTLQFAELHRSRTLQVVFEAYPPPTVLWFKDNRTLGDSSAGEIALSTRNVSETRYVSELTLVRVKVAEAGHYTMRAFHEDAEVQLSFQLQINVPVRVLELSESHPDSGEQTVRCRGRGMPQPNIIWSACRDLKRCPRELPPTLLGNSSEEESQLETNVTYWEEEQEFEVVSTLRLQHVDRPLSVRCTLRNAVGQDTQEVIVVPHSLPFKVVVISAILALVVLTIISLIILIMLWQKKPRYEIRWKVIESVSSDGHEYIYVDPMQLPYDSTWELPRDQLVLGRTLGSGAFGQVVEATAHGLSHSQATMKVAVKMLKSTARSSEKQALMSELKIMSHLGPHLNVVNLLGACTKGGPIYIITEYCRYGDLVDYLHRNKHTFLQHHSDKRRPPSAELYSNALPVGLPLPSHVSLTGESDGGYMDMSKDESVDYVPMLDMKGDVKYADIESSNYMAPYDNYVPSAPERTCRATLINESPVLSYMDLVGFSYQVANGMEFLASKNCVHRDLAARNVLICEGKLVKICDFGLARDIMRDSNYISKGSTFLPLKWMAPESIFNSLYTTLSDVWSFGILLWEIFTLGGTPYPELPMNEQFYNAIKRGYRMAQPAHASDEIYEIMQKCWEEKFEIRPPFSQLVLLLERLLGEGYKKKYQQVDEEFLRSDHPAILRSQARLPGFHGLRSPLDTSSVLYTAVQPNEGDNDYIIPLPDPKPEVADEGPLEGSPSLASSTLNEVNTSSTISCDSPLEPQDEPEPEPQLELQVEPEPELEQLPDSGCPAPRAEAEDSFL
T2 sequence (P07333 20-972): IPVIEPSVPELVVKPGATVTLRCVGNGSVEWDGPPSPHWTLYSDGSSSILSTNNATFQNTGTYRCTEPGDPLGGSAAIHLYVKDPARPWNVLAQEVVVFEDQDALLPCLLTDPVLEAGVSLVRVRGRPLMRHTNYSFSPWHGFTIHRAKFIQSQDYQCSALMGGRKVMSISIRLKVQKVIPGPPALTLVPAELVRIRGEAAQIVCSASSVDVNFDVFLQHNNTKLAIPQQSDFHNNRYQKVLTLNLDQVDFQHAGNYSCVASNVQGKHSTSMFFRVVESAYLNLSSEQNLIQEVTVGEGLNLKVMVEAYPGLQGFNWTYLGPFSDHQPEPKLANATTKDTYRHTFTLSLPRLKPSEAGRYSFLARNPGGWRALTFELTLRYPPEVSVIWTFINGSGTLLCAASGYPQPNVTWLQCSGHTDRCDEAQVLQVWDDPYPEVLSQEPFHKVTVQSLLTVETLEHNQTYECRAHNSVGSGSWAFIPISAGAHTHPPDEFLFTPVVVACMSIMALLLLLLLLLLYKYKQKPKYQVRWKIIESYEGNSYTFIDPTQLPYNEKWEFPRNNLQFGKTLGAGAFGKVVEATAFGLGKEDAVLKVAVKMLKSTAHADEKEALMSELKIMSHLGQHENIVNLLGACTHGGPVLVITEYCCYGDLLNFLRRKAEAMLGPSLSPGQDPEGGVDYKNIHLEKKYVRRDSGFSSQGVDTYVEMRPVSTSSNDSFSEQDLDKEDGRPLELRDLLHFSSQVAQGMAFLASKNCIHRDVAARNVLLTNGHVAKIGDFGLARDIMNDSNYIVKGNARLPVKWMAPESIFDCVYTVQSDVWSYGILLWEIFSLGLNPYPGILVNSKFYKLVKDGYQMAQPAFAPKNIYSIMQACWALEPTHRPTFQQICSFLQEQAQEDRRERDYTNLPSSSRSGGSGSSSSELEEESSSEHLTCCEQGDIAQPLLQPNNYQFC

IC50 (PDGFR beta) [nM]	IC50 (cFMS) [nM]	IC50 (c-KIT) [nM]	Structure (SMILES)
915	21.9	6870	Cc1cccc(Cn2nc(C)c3c(NC(=O)c4cnc5cc(OCC(O)CO)ccn45)cccc32)n1 (stereo not drawn) [Example 58, 7-(2,3-dihydroxypropoxy)-N-(3-methyl-1-((6-methylpyridin-2-yl)methyl)-1H-indazol-4-yl)imidazo[1,2-a]pyridine-3-carboxamide]
19.3	19.4	1490	Cc1cccc(Cn2nc(C)c3c(NC(=O)c4cnc5cc(OCCN6CCOCC6)ccn45)cccc32)n1 [Example 59, N-(3-methyl-1-((6-methylpyridin-2-yl)methyl)-1H-indazol-4-yl)-7-(2-morpholinoethoxy)imidazo[1,2-a]pyridine-3-carboxamide]
5000	35.6	4560	Cc1cccc(Cn2nc(C)c3c(NC(=O)c4cnc5cc(OCCN(C)C)ccn45)cccc32)n1 [Example 60, 7-(2-(dimethylamino)ethoxy)-N-(3-methyl-1-((6-methylpyridin-2-yl)methyl)-1H-indazol-4-yl)imidazo[1,2-a]pyridine-3-carboxamide]
222	58.1	527	Cc1cccc(Cn2nc(C)c3c(NC(=O)c4cnc5ccccn45)cccc32)n1 [Example 61, N-(3-methyl-1-((6-methylpyridin-2-yl)methyl)-1H-indazol-4-yl)imidazo[1,2-a]pyridine-3-carboxamide]
94.1	9.7	1010	Cc1cccc(Cn2nc(C)c3c(NC(=O)c4cnc5cc(OCCN6CCNCC6)ccn45)cccc32)n1 [Example 64, N-(3-methyl-1-((6-methylpyridin-2-yl)methyl)-1H-indazol-4-yl)-7-(2-(piperazin-1-yl)ethoxy)imidazo[1,2-a]pyridine-3-carboxamide]
212	8.5	647	Cc1cccc(Cn2nc(C)c3c(NC(=O)c4cnc5cc(-c6ccc(=O)n(C)c6)ccn45)cccc32)n1 [Example 65, N-(3-methyl-1-((6-methylpyridin-2-yl)methyl)-1H-indazol-4-yl)-7-(1-methyl-6-oxo-1,6-dihydropyridin-3-yl)imidazo[1,2-a]pyridine-3-carboxamide]
10.3	10	60.6	Cc1nn(Cc2cc(C)n(C(C)C)n2)c2cccc(NC(=O)c3cnc4cc(OCCN5CCN(C)CC5)ccn34)c12 [Example 67, N-(1-((1-isopropyl-5-methyl-1H-pyrazol-3-yl)methyl)-3-methyl-1H-indazol-4-yl)-7-(2-(4-methylpiperazin-1-yl)ethoxy)imidazo[1,2-a]pyridine-3-carboxamide]
23.2	5	76.9	Cc1cccc(Cn2nc(C)c3c(NC(=O)c4cnc5cc(-c6cnn(C)c6)ccn45)cccc32)n1 [Example 68, N-(3-methyl-1-((6-methylpyridin-2-yl)methyl)-1H-indazol-4-yl)-7-(1-methyl-1H-pyrazol-4-yl)imidazo[1,2-a]pyridine-3-carboxamide]
3160	24.2	7010	Cc1cccc(Cn2nc(C)c3c(NC(=O)c4cnc5cc(CCN(C)C)ccn45)cccc32)n1 [Example 72, 7-(2-(dimethylamino)ethyl)-N-(3-methyl-1-((6-methylpyridin-2-yl)methyl)-1H-indazol-4-yl)imidazo[1,2-a]pyridine-3-carboxamide]
3430	17.3	4070	Cc1cccc(Cn2nc(C)c3c(NC(=O)c4cnc5cc(CCN6CCN(C)CC6)ccn45)cccc32)n1 [Example 78, N-(3-methyl-1-((6-methylpyridin-2-yl)methyl)-1H-indazol-4-yl)-7-(2-(4-methylpiperazin-1-yl)ethyl)imidazo[1,2-a]pyridine-3-carboxamide]
174	8.2	5700	COCCOc1ccn2c(C(=O)Nc3cccc4c3c(C)nn4Cc3ccccc3)cnc2c1 [Example 80, N-(1-benzyl-3-methyl-1H-indazol-4-yl)-7-(2-methoxyethoxy)imidazo[1,2-a]pyridine-3-carboxamide]
6440	136	4440	Cc1ccc(Cn2nc(C)c3c(NC(=O)c4cnc5ccccn45)cccc32)cn1 [Example 81, N-(3-methyl-1-((6-methylpyridin-3-yl)methyl)-1H-indazol-4-yl)imidazo[1,2-a]pyridine-3-carboxamide]
401	10.4	303	Cc1ccc(Cn2nc(C)c3c(NC(=O)c4cnc5cc(OCCN6CCN(C)CC6)ccn45)cccc32)cn1 [Example 85, N-(3-methyl-1-((6-methylpyridin-3-yl)methyl)-1H-indazol-4-yl)-7-(2-(4-methylpiperazin-1-yl)ethoxy)imidazo[1,2-a]pyridine-3-carboxamide]
117	7	314	CCOc1cccc(Cn2nc(C)c3c(NC(=O)c4cnc5cc(OCCN6CCN(C)CC6)ccn45)cccc32)n1 [Example 86, N-(1-((6-ethoxypyridin-2-yl)methyl)-3-methyl-1H-indazol-4-yl)-7-(2-(4-methylpiperazin-1-yl)ethoxy)imidazo[1,2-a]pyridine-3-carboxamide]
77.7	4.9	372	COc1cccc(Cn2nc(C)c3c(NC(=O)c4cnc5cc(OCCN6CCN(C)CC6)ccn45)cccc32)n1 [Example 87, N-(1-((6-methoxypyridin-2-yl)methyl)-3-methyl-1H-indazol-4-yl)-7-(2-(4-methylpiperazin-1-yl)ethoxy)imidazo[1,2-a]pyridine-3-carboxamide]
180	15.6	510	Cc1nc(Cn2nc(C)c3c(NC(=O)c4cnc5cc(OCCN6CCN(C)CC6)ccn45)cccc32)cs1 [Example 88, N-(3-methyl-1-((2-methylthiazol-4-yl)methyl)-1H-indazol-4-yl)-7-(2-(4-methylpiperazin-1-yl)ethoxy)imidazo[1,2-a]pyridine-3-carboxamide]
845	7.3	1050	Cc1cccc(Cn2nc(C)c3c(NC(=O)c4cnc5cc(OCCN6CCN(C)CC6)ccn45)cccc32)n1 [Example 89, N-(3-methyl-1-((6-methylpyridin-2-yl)methyl)-1H-indazol-4-yl)-7-(2-(4-methylpiperazin-1-yl)ethoxy)imidazo[1,2-a]pyridine-3-carboxamide tetrahydrochloride]
5	9.8	25.8	O=C(Nc1cccc2c1cnn2Cc1ccccc1)c1cnc2cc(OCCN3CCOCC3)ccn12 [Example 90, N-(1-benzyl-1H-indazol-4-yl)-7-(2-morpholinoethoxy)imidazo[1,2-a]pyridine-3-carboxamide]
6	842	6.4	COCCOc1ccn2c(C(=O)Nc3cccc4c3cnn4Cc3cccc(C(=O)OC)c3)cnc2c1 [Example 93, Methyl 3-((4-(7-(2-methoxyethoxy)imidazo[1,2-a]pyridine-3-carboxamido)-1H-indazol-1-yl)methyl)benzoate]
